Key:
HMLER cells [1] = experiment: Mammosphere (tumorsphere) formation of HMLER cells after short-term drug treatment; format: cell-based, human; conditions: 24 hours treatment, 24 hours recovery, 7 days drug-free sphere culture
Method: (§1) Nor was any difference observed between BPLER and HMLER cells with paclitaxel or 5-fluorouracil (FIG. 3B). As noted above, tumorsphere formation capacity correlates with TSC subpopulations. With the tumorsphere assay employed, a single tumor cell can form a multicellular tumorsphere in suspension. To assess the short term effect of drug treatment, drugs were removed after treating the tumor cells in routine 2D culture conditions for 24 hours, and after a recovery period of 24 hours tumorsphere cultures were suspended in a medium free of drugs for 7 days.
(§2) BPLER and HMLER cells were maintained in WIT-T (Stemgent) and MGEM (Lonza) medium at 37° C. and 5% CO2. The remaining cell lines were grown in DMEM/F12 (Gibco) with 10% fetal bovine serum (FBS) at 37° C. and 5% CO2. The BPLER cells were grown on Primaria plasticware (BD Biosciences). The remaining cells were grown on standard plasticware (Falcon). The mammospheres were maintained in a 1:1 ratio of WIT-T/MEGM (less bovine pituitary extract) using 2% B27 (Invitrogen), 20 ng/ml EGF, 20 ng/ml bFGF (BD Biosciences), 4 ug/ml heparin (Sigma), and 0.5% methyl cellulose. Sphere formation experiments were carried out by plating 15,000-20,000 cells/well into 6-well ultra-low attachment plates (Corning). The cells were fed at days 1, 3, and 5, and spheres were counted at day 7.
(§3) Drug treatment experiments were performed in a 1:1 ratio of WIT-T/MEGM media. […] To evaluate the drug effect on 2D proliferation of BPLER and HMLER cells, the cells were plated at 125,000 cells/well in 6-well Primaria plates. Drug-containing media was added to each well after 24 hours. The cells were treated continuously for 4 days with drug-containing media changes each day. Cell number was counted with a hemocytometer after 4 days of treatment. To evaluate the drug effect on BPLER and HMLER cell mammosphere formation, cells were plated at 50% confluence in Primaria flasks. After 24 hours, drug-containing media was added to each flask. After 24 hours of treatment with the drug-containing media, the cells recovered for 24 hours in a drug-free media. […]

BPLER cells [2] = format: cell-based, human; conditions: only when the drugs were present
Method: as §2
as §3, with “flasks.” for “flasks. After 24 hours, drug-containing media was added to each flask. After 24 hours of treatment with the drug-containing media, the cells recovered for 24 hours in a drug-free media.”

HMLER cells [3] = experiment: Drug effect on 2D proliferation of HMLER cells; format: cell-based, human; conditions: only when the drugs were present
Method: as §2
as §3, with “flasks.” for “flasks. After 24 hours, drug-containing media was added to each flask. After 24 hours of treatment with the drug-containing media, the cells recovered for 24 hours in a drug-free media.”

BPLER cells [4] = experiment: Mammosphere (tumorsphere) formation of BPLER cells after short-term drug treatment; format: cell-based, human; conditions: for BPLER cell capacity to form mammospheres (tumorsphere formation): 24 hours treatment, 24 hours recovery, 7 days drug-free sphere culture; for difference in response between BPLER and HMLER cells: BPLER vs HMLER
Method: as §1, §2
Drug treatment experiments were performed in a 1:1 ratio of WIT-T/MEGM media. […] To evaluate the drug effect on 2D proliferation of BPLER and HMLER cells, the cells were plated at 125,000 cells/well in 6-well Primaria plates. Drug-containing media was added to each well after 24 hours. The cells were treated continuously for 4 days with drug-containing media changes each day. Cell number was counted with a hemocytometer after 4 days of treatment. To evaluate the drug effect on BPLER and HMLER cell mammosphere formation, cells were plated at 50% confluence in Primaria flasks. After 24 hours, drug-containing media was added to each flask. After 24 hours of treatment with the drug-containing media, the cells recovered for 24 hours in a drug-free media. Cells were then plated for the mammosphere protocol as described previously.

[5] = test system: other Class I and Class II HDACs; conditions: TSA treatment of breast tumor cells; cited from earlier work

SMILES | HMLER cell capacity to form mammospheres (tumorsphere formation) (HMLER cells [1]) | cytotoxic effect on BPLER cells (BPLER cells [2]) | cytotoxic effect on HMLER cells (HMLER cells [3]) | BPLER cell capacity to form mammospheres (tumorsphere formation) (BPLER cells [4]) | difference in response between BPLER and HMLER cells (BPLER cells [4]) | changes in expression of other Class I and Class II HDACs [5]
O=c1[nH]cc(F)c(=O)[nH]1 [5-fluorouracil] | not inhibited | cytotoxic effect | cytotoxic effect | not inhibited | no difference | 
CC(/C=C/C(=O)NO)=C\[C@@H](C)C(=O)c1ccc(N(C)C)cc1 [TSA, trichostatin A] | did not affect |  |  | significantly decreased |  | less than 2 fold
CC(=O)O[C@H]1C(=O)[C@@]2(C)[C@H]([C@H](OC(=O)c3ccccc3)[C@]3(O)C[C@H](OC(=O)[C@H](O)[C@@H](NC(=O)c4ccccc4)c4ccccc4)C(C)=C1C3(C)C)[C@]1(OC(C)=O)CO[C@@H]1C[C@@H]2O [paclitaxel] | not inhibited | cytotoxic effect | cytotoxic effect | not inhibited | no difference | 

— patent US8912156B1, “Markers for and methods of targeting tumor stem cells” (Whitehead Institute for Biomedical Research, priority 2011, dated 2014)
